# Reference: patent publication US11098040B2, “Compounds and methods of use” (Ferro Therapeutics, Inc., priority 2018, dated 2021)
# Read-outs that look alike come from different tables or passages of the source.
# Tests used:
# [1] = test system: MiaPaCa-2; test: Cell viability assay (CellTiter Glo), pancreatic carcinoma MiaPaCa-2; format: cell-based; conditions: Homo sapiens
# Method in brief: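 MiaPaCa-2 and AsPC-1 cells were seeded overnight at 37 °C and exposed for 96 h to 9-point, 3-fold dilutions from up to 30 μM (final DMSO ≤0.25%). CellTiter Glo luminescence was read, and inhibition was calculated relative to DMSO-only cells. IC50, relative IC50 or % top inhibition was derived.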
# [2] = test system: Panc 12; test: Cell proliferation assay, pancreatic cancer cell line Panc 12; format: cell-based; conditions: Cell Line Panc 12
# Experimental: (§1) Cell viability assay was performed to assess the potency of the compounds in human cancer cell lines 786-O (renal cell carcinoma) and SJSA-1 (osteosarcoma). Additional cell lines, such as those described above in Example 4 as well as various others, e.g., pancreatic cancer cell lines (Panc 02.13, BxPC-3, Panc 12, Panc 02.03, Panc 6.03, PSN-1, HPAC, and Capan-1) and prostate cancer cell lines (PC-3, DU145, 22Rv1, NCI-H660, BPH1, LNCaP, BM-1604, and MDA PCa 2b), were tested for select compounds as shown in Table 25.
# (§2) The cell proliferation assays for the compounds shown Table 25 was performed according to the protocols described herein, including Examples 4 and 6.
# [3] = test system: H2228; test: Cell viability assay (CellTiter Glo), lung cancer cell line H2228; format: cell-based; conditions: Homo sapiens, NCI-H2228
# Experimental: (§3) Cell viability assay was performed to assess the potency of the compounds in human cancer cell lines KP4 (pancreatic ductal adenocarcinoma), MiaPaCa-2 (pancreatic carcinoma), AsPC-1 (pancreatic adenocarcinoma, ascites), 143B (osteosarcoma), and SJSA-1 (osteosarcoma). Selected compounds were also assayed in a human breast epithelial cell line MCF-10A, a nontumorigenic cell line as a control to assess differential activity. Cells at a density of 500-5,000 cells/well were seeded in 96-well plates and incubated at 37° C. overnight. A series of 9 different concentrations of compound stocks (500×) were created by 3-fold serial dilution in DMSO. These compounds were further diluted in culture media and then added to cells so that the final DMSO concentration was equal to 0.25% or less. After 96 hours of incubation, 50 μL of CellTiter Glo reagent (Promega) was added to each well and luminescence was measured after 10 minutes using EnVision (PerkinElmer). Compounds titrated from top concentration of up to 30 μM. The select compounds were tested initially from 30 μM as the top concentration in duplicates (range of 4.6 nM-30 μM). […] Luminescence from cells treated with DMSO alone was set as Max and % of inhibition was calculated as follows: Inhibition %=(Max-Sample value)/Max*100. Data was analyzed using XL-fit software (ID Business Solutions Ltd.). IC50, relative IC50, or % of top inhibition was calculated.
# (§4) A group of selected analogs were further profiled in cell viability assays described above in multiple additional cancer cell lines, including lung cancer, melanoma, hepatocarcinoma, pancreatic cancer, leukemia, lymphoma, ovarian cancer, breast cancer, colon cancer, and sarcoma cell lines. Initial cell seeding numbers were adjusted for each cell line. Typically, 500-5000 cells/well for adherent cells and 5000-10000/well for suspension cells were seeded in 96-well plates.
# [4] = test system: 143B; test: Cell viability assay (CellTiter Glo), osteosarcoma 143B; format: cell-based; conditions: Homo sapiens
# Experimental: as §3
# (§5) The results of the assay in sarcoma cell lines are given in Table 21a for HT-1080 luc2 (fibrosarcoma expressing a luciferase gene), Table 21b for 143B (osteosarcoma), and Table 21c for SJSA-1 (osteosarcoma).
# [5] = test system: PSN-1; test: Cell proliferation assay, pancreatic cancer cell line PSN-1; format: cell-based; conditions: Homo sapiens, PSN1
# Experimental: as §1, §2
# [6] = test system: Panc 02.13; test: Cell proliferation assay, pancreatic cancer cell line Panc 02.13; format: cell-based
# Experimental: as §1, §2
# [7] = test system: Capan-1; test: Cell proliferation assay, pancreatic cancer cell line Capan-1; format: cell-based; conditions: Homo sapiens
# Experimental: as §1, §2
# [8] = test system: KP4; test: Cell viability assay (CellTiter Glo), pancreatic ductal adenocarcinoma KP4; format: cell-based, human; conditions: Homo sapiens, KP-4, Cell Line KP4; read-out: IC50
# Method in brief: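 Luminescent ATP readout (CellTiter Glo) after 96 h compound exposure, normalized to DMSO-treated cells as maximum. Compounds ran in duplicate, nine 3-fold steps from 30 μM down to 4.6 nM, final DMSO ≤0.25%; KP4 plated overnight at 1,000–10,000 cells/well. Outputs: IC50, relative IC50 or % top inhibition.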
# [9] = test system: AsPC-1; test: Cell viability assay (CellTiter Glo), pancreatic adenocarcinoma AsPC-1; format: cell-based; conditions: Homo sapiens, ASPC1
# Experimental: as §3
# (§6) The results of the assay in the pancreatic cell lines are given in Table 15a for PANC1, Table 15b for MiaPaCa-2, and Table 15c for AsPC-1.
# [10] = test system: BxPC-3; test: Cell proliferation assay, pancreatic cancer cell line BxPC-3; format: cell-based; conditions: Homo sapiens
# Experimental: as §1, §2
# [11] = test system: Panc 02.03; test: Cell proliferation assay, pancreatic cancer cell line Panc 02.03; format: cell-based; conditions: Homo sapiens
# Experimental: as §1, §2
# [12] = test system: HPAC; test: Cell proliferation assay, pancreatic cancer cell line HPAC; format: cell-based; conditions: Homo sapiens
# Experimental: as §1, §2
# [13] = test system: Panc 6.03; test: Cell proliferation assay, pancreatic cancer cell line Panc 6.03; format: cell-based
# Experimental: as §1, §2
# [14] = mouse, in vivo, ip, 15 mg/kg
# Experimental: (§8) Test compounds were dissolved either in 20% (w/w) sulfobutylether-β-cyclodextrin (SBECD) pH 3-7 aqueous solution, or 5% DMSO/(30-50%) PEG400/(65-45%) water. Test compound dosing solutions were administered intraperitoneally to Balb/c nude male mice. Blood samples were collected at various time points with EDTA-K2 as anti-coagulant on ice, and centrifuged to obtain plasma samples. The plasma samples were stored at −20° C. until analysis.
# (§9) Into 10 μL of test compound plasma samples were added 2 μL DMSO then 200 μL of 5 ng/mL internal standard (VTSD) (Terfenadine) in MeOH/acetonitrile. The mixture was vortexed for 1 minute and centrifuged at 4000 rpm for 15 minutes. Calibration standards were prepared by spiking known amount of test compounds into blank plasma samples. The supernatant solution was diluted 5 times with Acetonitrile/H2O (with 0.1% formic acid, 1:1, v/v), and this is the solution for LC-MS/MS analysis. The limit of quantification (LOQ) was 1 ng/mL.
# (§10) Typical HPLC mobile phases were mobile phase of 5 mM NH4OAc (with 0.05% formic acid); and mobile phase B of acetonitrile (with 0.1% formic acid). The HPLC column was Kinetex C18 (30 mm×3.00 mm). Mass spectrometer was tuned for each compound in the Multiple Reaction Monitoring (MRM) scanning mode and in the electrospray ionization mode. The lower limit of quantification was 1-10 ng.
# (§11) In this study, K601 (RSL3) was formulated in 5% DMSO/30% PEG 400/65% water at 1.5 mg/mL. The volume of injection via intraperitoneal route was 10 mL/kg for a dose of 15 mg/kg. […] The limit of quantification (LOQ) was 1 ng/mL.
# (§12) In this study, the compound was formulated in 20% (w/w) sulfobutylether-β-cyclodextrin (SBECD), pH 5 aqueous solution at 1.5 mg/mL. The volume of injection via intraperitoneal route was 10 mL/kg for a dose of 15 mg/kg. The concentration of test compounds in plasma were analyzed by LC-MS with the method described above. The limit of quantification was 1 ng/mL.
# (§13) It was formulated in 5% DMSO/50% PEG400/45% Water pH adjusted to 4 with HCl as an aqueous solution at 1.0 mg/mL. The volume of injection via intraperitoneal route was 15 mL/kg for a dose of 15 mg/kg. The concentration of test compounds in plasma were analyzed by LC-MS with the method described above. The limit of quantification was 1 ng/mL. […] The limit of quantification was 1 ng/mL.
# (§14) Compounds 24 and 28 were formulated in 20% (w/w) sulfobutylether-β-cyclodextrin (SBECD) with pH 3 and pH 4, respectively, as an aqueous solution at 1.0 mg/mL. Compound 67 was in 5% DMSO/50% PEG 400/45% water pH 4 (adjusted with 12 N HCl) aqueous solution at 1.0 mg/mL. The injection volume via intraperitoneal route was 10 mL/kg for a dose of 15 mg/kg. The concentration of test compounds in plasma were analyzed by LC-MS with the method described above. The limit of quantification was 1 ng/mL.
# [15] = test system: MCF-10A; test: Cell viability assay (CellTiter Glo), non-tumorigenic breast epithelial cell line MCF-10A; format: cell-based; conditions: Homo sapiens, 96 hours
# Method in brief: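 Non-tumorigenic breast epithelial MCF-10A line, exposed for 96 hours to compound (top concentration up to 30 μM, 3-fold steps, duplicates, final DMSO 0.25% or less). ATP luminescence (CellTiter Glo) normalised to DMSO controls yields IC50, relative IC50 or % top inhibition; paclitaxel served as cytotoxic control.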
# [16] = in vivo; conditions: male, Balb/c nude, mouse, ip, 15 mg/kg
# Experimental: as §8, §9, §10, §11, §12, §13, §14
# [17] = test system: SJSA-1; test: Cell viability assay (CellTiter Glo), osteosarcoma SJSA-1; format: cell-based; conditions: Homo sapiens, 96 hours
# Experimental: as §3, §5
# [18] = test system: H1299; test: Cell viability assay (CellTiter Glo), lung cancer cell line H1299; format: cell-based; conditions: Homo sapiens, NCI-H1299, 96 hours
# Experimental: as §3, §4
# [19] = test system: MDA-MB-435S; test: Cell viability assay (CellTiter Glo), melanoma cell line MDA-MB-435S; format: cell-based; conditions: Homo sapiens, 96 hours
# Experimental: as §3, §4
# [20] = test system: HT-1080 luc2; test: Cell viability assay (CellTiter Glo), fibrosarcoma HT-1080 luc2; format: cell-based; conditions: Homo sapiens, fibrosarcoma expressing a luciferase gene, 96 hours, CellTiter Glo, read-out: IC50 HT-1080 luc2
# Experimental: as §3, §4, §5
# [21] = test system: MV-4-1; test: Cell viability assay (CellTiter Glo), leukemia cell line MV-4-1; format: cell-based; conditions: 96 hours
# Experimental: as §3, §4
# (§7) The results of the assay in the leukemia cell lines are given in Table 16a for MV-4-1 and Table 16b for HL-60 and Kasumi-1.
# [22] = test system: Raji; test: Cell viability assay (CellTiter Glo), lymphoma cell line Raji; format: cell-based; conditions: Homo sapiens, 96 hours
# Experimental: as §3, §4
# [23] = test system: Kasumi-1; test: Cell viability assay (CellTiter Glo), leukemia cell line Kasumi-1; format: cell-based; conditions: Homo sapiens, 96 hours
# Experimental: as §3, §4, §7
# [24] = test system: HL-60; test: Cell viability assay (CellTiter Glo), leukemia cell line HL-60; format: cell-based; conditions: Homo sapiens, 96 hours
# Experimental: as §3, §4, §7
# [25] = test system: Huh7; test: Cell viability assay (CellTiter Glo), hepatocellular carcinoma Huh7; format: cell-based; conditions: Homo sapiens, Huh-7, 96 hours
# Experimental: as §3, §4
# [26] = test system: SW480; test: Cell viability assay (CellTiter Glo), colon cancer cell line SW480; format: cell-based; conditions: Homo sapiens, 96 hours
# Experimental: as §3, §4
# [27] = test system: REC-1; test: Cell viability assay (CellTiter Glo), lymphoma cell line REC-1; format: cell-based; conditions: Homo sapiens, Rec1, 96 hours
# Experimental: as §3, §4
# [28] = test system: HT29; test: Cell viability assay (CellTiter Glo), colon cancer cell line HT29; format: cell-based; conditions: Homo sapiens, HT-29, 96 hours
# Experimental: as §3, §4
# [29] = test system: SK-OV-3; test: Cell viability assay (CellTiter Glo), ovarian cancer cell line SK-OV-3; format: cell-based; conditions: Homo sapiens, 96 hours
# Experimental: as §3, §4
# [30] = test system: HCC1954; test: Cell viability assay (CellTiter Glo), breast cancer cell line HCC1954; format: cell-based; conditions: Homo sapiens, 96 hours
# Experimental: as §3, §4
# [31] = test system: PANC1; test: Cell viability assay (CellTiter Glo), pancreatic cell line PANC1; format: cell-based; conditions: Homo sapiens, PANC-1, 96 hours
# Experimental: as §3, §4, §6
# [32] = MIA PaCa-2, pancreatic carcinoma, 96 hours, CellTiter Glo, read-out: IC50 MiaPaCa-2
# [33] = lung cancer cell line, 96 hours, CellTiter Glo, read-out: IC50 H2228
compound,measurement,setting,value
C[C@H]1Cc2c([nH]c3ccccc23)[C@H](c2ccc(N3CCC3)cc2)N1C(=O)CCl [Compound 239],IC50,"[1]; Cell Line Mia PaCa-2, read-out: IC50",259 nM
same,IC50,[2],57.8 nM
same,IC50,"[3]; Cell Line H2228, read-out: IC50",14.6 nM
same,IC50,"[4]; Cell Line 143B, read-out: IC50",1120 nM
same,IC50,[5],183 nM
same,IC50,[6],1110 nM
same,IC50,[7],> 1000 nM
same,IC50,[8],4 nM
same,IC50,"[9]; Cell Line AsPC-1, read-out: IC50",65.2 nM
same,IC50,[10],910 nM
same,IC50,[11],394 nM
same,IC50,[12],321 nM
same,IC50,[13],166 nM
COC(=O)[C@H]1Cc2c([nH]c3ccccc23)[C@H](c2ccc(C(=O)OC(C)(C)C)cc2)N1C(=O)CCl [Example 1],IC50,[1]; [32],5 nM
same,AUC Extr,"[14]; male, Balb/c nude",7.26%
same,"exposure (Cmax, AUC) compared with K601 (RSL3)",[14],higher exposure
same,IC50,"[4]; 96 h, osteosarcoma, 96 hours, CellTiter Glo, read-out: IC50 143B",9 nM
same,IC50,[15],850 nM
same,AUC,[16],123 ng·h/mL
same,AUC(0-inf),[16],132 ng·h/mL
same,AUC(0-t),[16],123 ng·h/mL
same,Cmax,[16],126 ng/mL
same,MRT inf,[16],1.4 h
same,Tmax,[16],0.5 h
same,half-life,[16],1.12 h
same,concentration at 0.5 h,[16]; Calculated Concentration,146 ng/mL
same,concentration at 1 h,[16]; Calculated Concentration,56.1 ng/mL
same,concentration at 4 h,[16]; Calculated Concentration,5.56 ng/mL
same,concentration at 0.5 h,"[16]; Calculated Concentration, Mean",126 ng/mL
same,concentration at 1 h,"[16]; Calculated Concentration, Mean",42.6 ng/mL
same,concentration at 2 h,"[16]; Calculated Concentration, Mean",14.9 ng/mL
same,concentration at 4 h,"[16]; Calculated Concentration, Mean",5.74 ng/mL
same,IC50,[17],18 nM
COC(=O)[C@H]1Cc2c([nH]c3ccccc23)[C@H](c2ccc(N[C@]34CC5C[C@H](C[C@H](C5)C3)C4)cc2)N1C(=O)CCl [Example 29],IC50,[1]; [32],33 nM
same,IC50,[18],5 nM
same,IC50,[19],6 nM
same,IC50,[3]; [33],32 nM
same,IC50,[20],5 nM
same,IC50,[21],48 nM
same,IC50,[22],9 nM
same,IC50,[23],28 nM
same,IC50,[24],31 nM
same,IC50,[25],13 nM
same,IC50,[15],410 nM
same,IC50,[26],2000 nM
same,IC50,[27],27 nM
same,IC50,[28],49 nM
same,IC50,[29],12 nM
same,IC50,[17],14 nM
same,IC50,"[9]; pancreatic adenocarcinoma, ascites, 96 hours, CellTiter Glo, read-out: IC50 AsPC-1",23 nM
same,IC50,[30],38 nM
same,IC50,[31],27 nM
COC(=O)[C@H]1Cc2c([nH]c3ccccc23)[C@H](c2ccc(NCC3CC3)cc2)N1C(=O)CCl [Example 83],IC50,[18],41 nM
same,IC50,[19],47 nM
same,IC50,[3]; [33],112 nM
same,IC50,[20],38 nM
same,IC50,[21],524 nM
same,IC50,[22],151 nM
same,IC50,[25],120 nM
same,IC50,[15],3790 nM
same,IC50,[26],10500 nM
same,IC50,[27],516 nM
same,IC50,[28],338 nM
same,IC50,[29],230 nM
same,IC50,[30],333 nM
same,IC50,[31],> 1000 nM
COC(=O)c1ccc([C@@H]2c3[nH]c4ccc(F)cc4c3C[C@H](C(=O)OC)N2C(=O)CCl)cc1 [Example 92],IC50,[18],13 nM
same,IC50,[19],17 nM
same,IC50,[3]; [33],50 nM
same,IC50,[20],12 nM
same,IC50,[21],129 nM
same,IC50,[22],28 nM
same,IC50,[25],73 nM
same,IC50,[15],1140 nM
same,IC50,[26],533 nM
same,IC50,[27],70 nM
same,IC50,[28],228 nM
same,IC50,[29],47 nM
same,IC50,[30],96 nM
same,IC50,[31],78 nM
C[C@H]1Cc2c([nH]c3ccc(F)cc23)[C@H](c2ccc(N3CCOCC3)cc2)N1C(=O)CCl [Example 114],IC50,[23],145 nM
same,IC50,[24],120 nM
same,IC50,[17],115 nM
